biological target: CBP (Homo sapiens (Human), UniProt Q92793); test: CBP TR-FRET binding assay; conditions: His/Flag tagged CBP 4 nM, biotin-ligand 60 nM; read-out: CBP HTRF IC50;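 note: displacement of a biotinylated small-molecule ligand from purified recombinant CBP read by TR-FRET, DMSO-only wells as control, IC50 from nonlinear curve fit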
Sequence (Q92793 whole entry): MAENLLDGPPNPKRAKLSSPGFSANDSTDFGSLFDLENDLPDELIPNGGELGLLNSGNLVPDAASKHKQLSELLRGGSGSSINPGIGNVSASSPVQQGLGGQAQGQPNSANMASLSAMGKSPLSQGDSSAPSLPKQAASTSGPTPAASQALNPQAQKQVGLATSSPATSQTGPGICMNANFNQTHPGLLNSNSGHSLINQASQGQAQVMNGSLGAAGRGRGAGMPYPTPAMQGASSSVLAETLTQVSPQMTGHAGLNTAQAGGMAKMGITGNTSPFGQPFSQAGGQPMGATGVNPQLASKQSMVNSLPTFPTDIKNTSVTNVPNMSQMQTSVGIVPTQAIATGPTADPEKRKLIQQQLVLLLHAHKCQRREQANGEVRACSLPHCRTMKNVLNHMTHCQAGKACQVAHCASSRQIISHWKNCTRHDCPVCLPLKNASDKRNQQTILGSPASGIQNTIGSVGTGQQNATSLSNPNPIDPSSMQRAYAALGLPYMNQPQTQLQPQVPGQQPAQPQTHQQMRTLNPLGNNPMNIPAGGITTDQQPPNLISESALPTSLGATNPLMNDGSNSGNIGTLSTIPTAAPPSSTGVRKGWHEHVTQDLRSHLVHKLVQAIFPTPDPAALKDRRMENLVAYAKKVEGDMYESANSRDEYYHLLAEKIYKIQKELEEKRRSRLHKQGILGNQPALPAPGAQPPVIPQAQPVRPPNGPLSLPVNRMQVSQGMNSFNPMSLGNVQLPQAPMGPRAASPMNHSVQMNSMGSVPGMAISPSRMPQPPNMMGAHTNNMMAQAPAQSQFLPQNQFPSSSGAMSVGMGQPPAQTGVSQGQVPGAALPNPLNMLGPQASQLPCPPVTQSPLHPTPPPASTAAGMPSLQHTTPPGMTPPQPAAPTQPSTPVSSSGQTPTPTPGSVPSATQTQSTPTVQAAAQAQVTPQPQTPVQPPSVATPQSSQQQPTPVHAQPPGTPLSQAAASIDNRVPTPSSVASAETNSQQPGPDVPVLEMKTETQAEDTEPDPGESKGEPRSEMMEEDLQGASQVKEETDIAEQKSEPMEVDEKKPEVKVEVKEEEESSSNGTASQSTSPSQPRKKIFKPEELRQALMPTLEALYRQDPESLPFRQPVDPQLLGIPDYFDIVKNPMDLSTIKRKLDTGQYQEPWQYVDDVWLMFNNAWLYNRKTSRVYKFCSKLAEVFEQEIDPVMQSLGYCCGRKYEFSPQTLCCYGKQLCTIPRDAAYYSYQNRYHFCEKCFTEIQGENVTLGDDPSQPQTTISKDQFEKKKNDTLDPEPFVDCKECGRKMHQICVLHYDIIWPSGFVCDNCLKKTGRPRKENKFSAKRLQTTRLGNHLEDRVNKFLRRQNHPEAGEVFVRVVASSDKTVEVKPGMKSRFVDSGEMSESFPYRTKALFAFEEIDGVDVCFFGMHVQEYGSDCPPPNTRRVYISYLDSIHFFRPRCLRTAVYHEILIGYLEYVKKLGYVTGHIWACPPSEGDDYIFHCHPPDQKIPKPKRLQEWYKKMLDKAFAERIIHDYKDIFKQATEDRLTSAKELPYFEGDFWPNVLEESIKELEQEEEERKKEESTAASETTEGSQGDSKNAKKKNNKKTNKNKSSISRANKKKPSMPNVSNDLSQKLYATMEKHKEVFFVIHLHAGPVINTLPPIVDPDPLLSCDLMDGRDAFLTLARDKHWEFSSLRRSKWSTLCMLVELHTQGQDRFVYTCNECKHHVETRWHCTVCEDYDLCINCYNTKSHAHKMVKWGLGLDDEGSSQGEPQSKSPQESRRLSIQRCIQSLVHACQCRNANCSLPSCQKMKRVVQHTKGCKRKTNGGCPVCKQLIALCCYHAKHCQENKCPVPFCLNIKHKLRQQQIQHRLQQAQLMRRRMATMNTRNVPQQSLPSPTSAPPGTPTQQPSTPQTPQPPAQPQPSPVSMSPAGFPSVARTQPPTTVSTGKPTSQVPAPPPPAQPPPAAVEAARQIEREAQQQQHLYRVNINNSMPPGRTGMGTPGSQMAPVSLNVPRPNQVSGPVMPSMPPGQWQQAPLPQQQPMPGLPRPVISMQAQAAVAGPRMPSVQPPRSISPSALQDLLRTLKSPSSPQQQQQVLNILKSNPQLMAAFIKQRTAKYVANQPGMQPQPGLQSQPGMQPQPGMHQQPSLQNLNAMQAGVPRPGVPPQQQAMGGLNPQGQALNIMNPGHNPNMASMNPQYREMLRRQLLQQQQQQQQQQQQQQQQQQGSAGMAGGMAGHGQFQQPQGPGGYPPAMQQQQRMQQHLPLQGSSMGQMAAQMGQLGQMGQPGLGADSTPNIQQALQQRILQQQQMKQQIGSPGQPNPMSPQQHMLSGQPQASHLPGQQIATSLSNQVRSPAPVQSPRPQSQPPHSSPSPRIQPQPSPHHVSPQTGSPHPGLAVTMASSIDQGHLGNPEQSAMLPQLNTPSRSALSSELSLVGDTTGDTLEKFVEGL
Protocol: IC50 Measurements for Inhibitors Using CBP TR FRET Binding Assay
His/Flag epitope tagged CBP was cloned, expressed, and purified to homogeneity. CBP binding and inhibition was assessed by monitoring the engagement of a biotinylated small molecule compound with the target using the TR-FRET assay technology (Perkin-Elmer). Specifically, in a 384 well ProxiPlate CBP (4 nM final) was combined with biotin-ligand (60 nM final) in 50 mM HEPES (pH 7.5), 50 mM NaCl, 1 mM TCEP, 0.01% (w/v) BSA, and 0.008% (w/v) Brij-35 either in the presence of DMSO (final 0.2% DMSO) or compound dilution series in DMSO. […] After twenty minutes of equilibration, the plates were read on an Envision instrument and IC50S calculated using a four parameter non-linear curve fit.

SMILES | IC50 [nM]
CNC(=O)N1CCOc2ccc(-c3nccc4ccccc34)cc2C1 [Example 1, 7-(isoquinolin-1-yl)-N-methyl-2,3-dihydrobenzo[f][1,4]oxazepine-4(5H)-carboxamide] | 187
CNC(=O)N1CCOc2ccc(-c3nc(N)cc4cnccc34)cc2C1 [Example 2] | 321
CNC(=O)N1CCOc2ccc(-c3c(C)ccc4c3cnn4C)cc2C1 [Example 3, 7-(1,5-dimethylindazol-4-yl)-N-methyl-3,5-dihydro-2H-1,4-benzoxazepine-4-carboxamide] | 57
CNC(=O)N1CCOc2ccc(-c3ccnc4ccccc34)cc2C1 [Example 4] | 193
CNC(=O)N1CCOc2ccc(-c3cccc4nn(C)cc34)cc2C1 [Example 5] | 296
CNC(=O)N1CCOc2ccc(-c3cccc4ncccc34)cc2C1 [Example 6] | 362
CNC(=O)N1CCOc2ccc(-c3cc(C)ccc3C)cc2C1 [Example 7] | 273
CNC(=O)N1CCOc2ccc(-c3cccc4cnn(C)c34)cc2C1 [Example 8] | 394
CNC(=O)N1CCOc2ccc(-c3c(C)ccc4[nH]ncc34)cc2C1 [Example 9] | 78
CNC(=O)N1CCOc2ccc(-c3cccc4c3cnn4C)cc2C1 [Example 10] | 96
CNC(=O)N1CCOc2ccc(-c3cncc4ccccc34)cc2C1 [Example 11] | 281
CNC(=O)N1CCOc2ccc(-c3c(F)ccc4[nH]ccc34)cc2C1 [Example 12] | 59
CNC(=O)N1CCOc2ccc(-c3ccc4[nH]ccc4c3)cc2C1 [Example 13] | 267
CNC(=O)N1CCOc2ccc(-c3cccc4[nH]ncc34)cc2C1 [Example 14] | 102
CNC(=O)N1CCOc2ccc(-c3cccc4cn[nH]c34)cc2C1 [Example 15] | 391
CN1C(=O)CCc2ccc(N3CCCc4cc(-c5cnn(C)c5)c(C(F)F)cc43)cc21 [Example 19] | 33
CN1C(=O)C(C)(C)c2ccc(N3CCCc4cc(-c5cnn(C)c5)c(C(F)F)cc43)cc21 [Example 20] | 1750

SMILES | IC50 [nM]
Cn1cc(-c2cc3c(cc2C(F)F)N(c2ccc4c(c2)sc(=O)n4C)CCC3)cn1 [Example 22] | 1690
Cn1cc(-c2ccc3c(c2)CCCN3c2ccc3sc(=O)n(C)c3c2)cn1 [Example 23] | 317
Cn1cc(-c2cc3c(cc2C(F)F)N(c2cc4c(cn2)n(C)c(=O)n4C)CCC3)cn1 [Example 24] | 106
Cn1cc(-c2cc3c(cc2C(F)F)N(c2cnc4c(c2)n(C)c(=O)n4C)CCC3)cn1 [Example 25] | 38
Cn1cc(-c2cc3c(cc2C(F)F)N(c2ccc4c(n2)n(C)c(=O)n4C)CCC3)cn1 [Example 26] | 2280
CNC(=O)c1ccc2nccc(N3CCCc4cc(-c5cnn(C)c5)c(C(F)F)cc43)c2c1 [Example 27, 4-[7-(difluoromethyl)-6-(1-methylpyrazol-4-yl)-3,4-dihydro-2H-quinolin-1-yl]-N-methyl-quinoline-6-carboxamide] | 34
COC(=O)c1ccc2nccc(N3CCCc4cc(-c5cnn(C)c5)ccc43)c2c1 [Example 28] | 199
CNC(=O)c1ccc2nccc(N3CCCc4cc(-c5cnn(C)c5)ccc43)c2c1 [Example 29] | 160
CNC(=O)c1cnn2ccc(N3CCCc4cc(-c5cnn(C)c5)c(C(F)F)cc43)cc12 [Example 30] | 543
CCn1c(=O)n(C)c2cc(N3CCCc4cc(-c5cnn(C)c5)c(C(F)F)cc43)ccc21 [Example 31, 5-[7-(difluoromethyl)-6-(1-methylpyrazol-4-yl)-3,4-dihydro-2H-quinolin-1-yl]-1-ethyl-3-methyl-benzimidazol-2-one] | 172
CCn1c(=O)n(C)c2ccc(N3CCCc4cc(-c5cnn(C)c5)c(C(F)F)cc43)cc21 [Example 32] | 48
Cn1cc(-c2cc3c(cc2C(F)F)N(c2cc(C4CC4)c4c(c2)n(C)c(=O)n4C)CCC3)cn1 [Example 38] | 16
CNc1cc(N2CCCc3cc(-c4cnn(C)c4)c(C(F)F)cc32)cc2c1n(C)c(=O)n2C [Example 42] | 19
Cn1cc(-c2cc3c(cc2C(F)F)N(c2cc(N4CCCCC4)c4c(c2)n(C)c(=O)n4C)CCC3)cn1 [Example 44] | 26
CNC(=O)c1cn(C)c2ccc(-c3cccc4cc(-c5cnn(C)c5)ncc34)cc12 [Example 49] | 22
CCn1cc(C(=O)NC)c2cc(N3CCCc4cc(-c5cnn(C)c5)c(C(F)F)cc43)ccc21 [Example 51] | 27
CNC(=O)c1c[nH]c2ccc(N3CCCc4cc(-c5cnn(C)c5)ccc43)cc12 [Example 53] | 48

Next, values leading:

IC50 [nM] | SMILES
42 | CC1C(=O)N(C)c2cc(N3CCCc4cc(-c5cnn(C)c5)c(C(F)F)cc43)ccc21 (stereo in doubt) [Example 92, (R)-6-[7-(difluoromethyl)-6-(1-methylpyrazol-4-yl)-3,4-dihydro-2H-quinolin-1-yl]-1,3-dimethyl-indolin-2-one]
95 | CC1C(=O)N(C)c2cc(N3CCCc4cc(-c5cnn(C)c5)c(C(F)F)cc43)ccc21 (stereo in doubt) [Example 93, (S)-6-[7-(difluoromethyl)-6-(1-methylpyrazol-4-yl)-3,4-dihydro-2H-quinolin-1-yl]-1,3-dimethyl-indolin-2-one]
26 | CNC(=O)c1cn(C)c2cnc(N3CCCc4cc(-c5cnn(C)c5)c(C(F)F)cc43)nc12 [Example 61]
18 | CNC(=O)c1c[nH]c2cnc(N3CCCc4cc(-c5cnn(C)c5)c(C(F)F)cc43)nc12 [Example 70]
187 | CNC(=O)c1n[nH]c2ccc(N3CCCc4cc(-c5cnn(C)c5)c(C(F)F)cc43)nc12 [Example 71]
110 | CNC(=O)c1cnc2ccc(N3CCCc4cc(-c5cnn(C)c5)c(C(F)F)cc43)nn12 [Example 72, 6-(7-(difluoromethyl)-6-(1-methyl-1H-pyrazol-4-yl)-3,4-dihydroquinolin-1(2H)-yl)-N-methylimidazo[1,2-b]pyridazine-3-carboxamide]
80 | CNC(=O)c1coc2ccc(N3CCCc4cc(-c5cnn(C)c5)c(C(F)F)cc43)cc12 [Example 73, 5-(7-(difluoromethyl)-6-(1-methyl-1H-pyrazol-4-yl)-3,4-dihydroquinolin-1(2H)-yl)-N-methylbenzofuran-3-carboxamide]
108 | Cn1cc(-c2cc3c(cc2C(F)F)N(c2cnc4[nH]cc(-c5cnn(C)c5)c4n2)CCC3)cn1 [Example 74, 7-(difluoromethyl)-6-(1-methyl-1H-pyrazol-4-yl)-1-(7-(1-methyl-1H-pyrazol-4-yl)-5H-pyrrolo[2,3-b]pyrazin-2-yl)-1,2,3,4-tetrahydroquinoline]
244 | Cn1cc(-c2ccc3c(c2)CCCN3c2cnc3[nH]cc(-c4cnn(C)c4)c3n2)cn1 [Example 75, 6-(1-methyl-1H-pyrazol-4-yl)-1-(7-(1-methyl-1H-pyrazol-4-yl)-5H-pyrrolo[2,3-b]pyrazin-2-yl)-1,2,3,4-tetrahydroquinoline]
243 | CNC(=O)N1CCOc2ccc(-c3c(C)ccc(-c4cnn(C)c4)c3C(F)F)cc2C1 [Example 76, 7-(2-(difluoromethyl)-6-methyl-3-(1-methyl-1H-pyrazol-4-yl)phenyl)-N-methyl-2,3-dihydrobenzo[f][1,4]oxazepine-4(5H)-carboxamide]
187 | CNC(=O)N1CCOc2ccc(-c3cccc(-c4cnn(C)c4)c3C(F)F)cc2C1 [Example 77, 7-(2-(difluoromethyl)-3-(1-methyl-1H-pyrazol-4-yl)phenyl)-N-methyl-2,3-dihydrobenzo[f][1,4]oxazepine-4(5H)-carboxamide]
77 | CCC(=O)N1CCOc2ccc(N3CCCc4cc(-c5cnn(C)c5)ccc43)cc2C1 [Example 79, 1-(7-(6-(1-methyl-1H-pyrazol-4-yl)-3,4-dihydroquinolin-1(2H)-yl)-2,3-dihydrobenzo[f][1,4]oxazepin-4(5H)-yl)propan-1-one]
325 | C[C@H]1Nc2c(cccc2N2CCCc3cc(-c4cnn(C)c4)ccc32)NC1=O [Example 82, (R)-3-methyl-5-(6-(1-methyl-1H-pyrazol-4-yl)-3,4-dihydroquinolin-1(2H)-yl)-3,4-dihydroquinoxalin-2(1H)-one]
87 | CNC(=O)c1ccc2c(c1)c(N1CCCc3cc(-c4cnn(C)c4)ccc31)nn2C1CCOCC1 [Example 84]
450 | CNC(=O)N1CCN(C)c2ccc(-c3ccccc3C)cc2C1 [Example 85, N,1-dimethyl-7-(o-tolyl)-3,5-dihydro-2H-1,4-benzodiazepine-4-carboxamide]
81 | CNC(=O)N1CCOc2ccc(-c3cccc4nc(-c5ccc(OC)cc5)cn34)cc2C1 [Example 86, 7-[2-(4-methoxyphenyl)imidazo[1,2-a]pyridin-5-yl]-N-methyl-3,5-dihydro-2H-1,4-benzoxazepine-4-carboxamide]
429 | CC(=O)N1CCCc2cc(N3CCCc4cc(-c5cnn(C)c5)c(C(F)F)cc43)ccc21 [Example 87, 1-[6-[7-(difluoromethyl)-6-(1-methylpyrazol-4-yl)-3,4-dihydro-2H-quinolin-1-yl]-3,4-dihydro-2H-quinolin-1-yl]ethanone]
258 | CC(=O)N1CCc2c(cc(-c3cccc4cc(-c5cnn(C)c5)ncc34)c(=O)n2C)C1 [Example 88, 6-acetyl-1-methyl-3-[3-(1-methylpyrazol-4-yl)-8-isoquinolyl]-7,8-dihydro-5H-1,6-naphthyridin-2-one]
78 | CN1C(=O)C(=O)c2ccc(N3CCCc4cc(-c5cnn(C)c5)c(C(F)F)cc43)cc21 [Example 89, 6-[7-(difluoromethyl)-6-(1-methylpyrazol-4-yl)-3,4-dihydro-2H-quinolin-1-yl]-1-methyl-indoline-2,3-dione]
481 | Cn1cc(-c2cc3c(cc2C(F)F)N(c2ccc4oc(=O)n(C)c4c2)CCC3)cn1 [Example 91, 5-[7-(difluoromethyl)-6-(1-methylpyrazol-4-yl)-3,4-dihydro-2H-quinolin-1-yl]-3-methyl-1,3-benzoxazol-2-one]
90 | Cn1cc(-c2cc3cccc(-c4ccc5c(c4)n(C)c(=O)n5C)c3cn2)cn1 [Example 94, 1,3-dimethyl-5-(3-(1-methyl-1H-pyrazol-4-yl)isoquinolin-8-yl)-1H-benzo[d]imidazol-2(3H)-one]

— US10696655B2, “Therapeutic compounds and uses thereof” (GENENTECH, INC., priority 2017, dated 2020)
